The CheMixHub viscosity set

Assay: xn = mol fraction of the nth substance listed

C=CCO + O
Conditions | viscosity [mPa·s]
298.15 K, 101.33 kPa, x1 = 0.04829 | 1.349
298.15 K, 101.33 kPa, x1 = 0.09818 | 1.682
298.15 K, 101.33 kPa, x1 = 0.1362 | 1.789
298.15 K, 101.33 kPa, x1 = 0.146 | 1.846
298.15 K, 101.33 kPa, x1 = 0.2038 | 1.888
298.15 K, 101.33 kPa, x1 = 0.2149 | 1.895
298.15 K, 101.33 kPa, x1 = 0.2178 | 1.887
298.15 K, 101.33 kPa, x1 = 0.2213 | 1.892
298.15 K, 101.33 kPa, x1 = 0.2883 | 1.891
298.15 K, 101.33 kPa, x1 = 0.3655 | 1.796
298.15 K, 101.33 kPa, x1 = 0.4148 | 1.75
298.15 K, 101.33 kPa, x1 = 0.6057 | 1.537
303.15 K, 101 kPa, x1 = 0.1 | 1.415
303.15 K, 101 kPa, x1 = 0.199 | 1.604
303.15 K, 101 kPa, x1 = 0.299 | 1.603
303.15 K, 101 kPa, x1 = 0.4 | 1.531
303.15 K, 101 kPa, x1 = 0.5 | 1.44
303.15 K, 101 kPa, x1 = 0.6 | 1.369
303.15 K, 101 kPa, x1 = 0.696 | 1.297
303.15 K, 101 kPa, x1 = 0.795 | 1.233
303.15 K, 101 kPa, x1 = 0.896 | 1.176
313.15 K, 101 kPa, x1 = 0.1 | 1.082
313.15 K, 101 kPa, x1 = 0.199 | 1.23
313.15 K, 101 kPa, x1 = 0.299 | 1.238
313.15 K, 101 kPa, x1 = 0.4 | 1.202
313.15 K, 101 kPa, x1 = 0.5 | 1.143
313.15 K, 101 kPa, x1 = 0.6 | 1.096
313.15 K, 101 kPa, x1 = 0.696 | 1.045
313.15 K, 101 kPa, x1 = 0.795 | 1.002
313.15 K, 101 kPa, x1 = 0.896 | 0.9616
318.15 K, 101 kPa, x1 = 0.1 | 0.9613
318.15 K, 101 kPa, x1 = 0.199 | 1.09
318.15 K, 101 kPa, x1 = 0.299 | 1.103
318.15 K, 101 kPa, x1 = 0.4 | 1.072
318.15 K, 101 kPa, x1 = 0.5 | 1.031
318.15 K, 101 kPa, x1 = 0.6 | 0.991
318.15 K, 101 kPa, x1 = 0.696 | 0.9463
318.15 K, 101 kPa, x1 = 0.795 | 0.9099
318.15 K, 101 kPa, x1 = 0.896 | 0.876
323.15 K, 101 kPa, x1 = 0.1 | 0.8601
323.15 K, 101 kPa, x1 = 0.199 | 0.9754
323.15 K, 101 kPa, x1 = 0.299 | 0.9907
323.15 K, 101 kPa, x1 = 0.4 | 0.9622
323.15 K, 101 kPa, x1 = 0.5 | 0.9263
323.15 K, 101 kPa, x1 = 0.6 | 0.8973
323.15 K, 101 kPa, x1 = 0.696 | 0.8586
323.15 K, 101 kPa, x1 = 0.795 | 0.8284
323.15 K, 101 kPa, x1 = 0.896 | 0.8008

CN1CCC[C@H]1c1cccnc1 + O
viscosity [mPa·s]
Conditions | 298.15 K | 303.15 K | 308.15 K | 318.05 K | 323.15 K
100 kPa, x1 = 0.006 | – | 1.33 | – | 1.15 | –
100 kPa, x1 = 0.1 | – | 7.1 | – | 4.1 | –
100 kPa, x1 = 0.3 | – | 14.2 | – | 6.2 | –
100 kPa, x1 = 0.4 | – | 17.3 | – | 5.8 | –
100 kPa, x1 = 0.5 | – | 11.1 | – | 5 | –
100 kPa, x1 = 0.6 | – | 5.8 | – | 3.1 | –
100 kPa, x1 = 0.7 | – | 4.5 | – | 2.8 | –
100 kPa, x1 = 0.8 | – | 4.8 | – | 3.5 | –
100 kPa, x1 = 0.9 | – | 2 | – | 1.3 | –
101 kPa, x1 = 0.1202 | 11.12 | – | 6.629 | – | 3.436
101 kPa, x1 = 0.1977 | 19.96 | – | 10.4 | – | 4.771
101 kPa, x1 = 0.2424 | 23.83 | – | 12.08 | – | 5.382
101 kPa, x1 = 0.2592 | 25.19 | – | 12.24 | – | 5.493
101 kPa, x1 = 0.2808 | 24.43 | – | 12.19 | – | 5.403
101 kPa, x1 = 0.3047 | 23.6 | – | 12.1 | – | 5.304
101 kPa, x1 = 0.3692 | 21.03 | – | 11.15 | – | 5.146
101 kPa, x1 = 0.4852 | 15.84 | – | 8.817 | – | 4.426
101 kPa, x1 = 0.6052 | 11.43 | – | 6.572 | – | 3.624
101 kPa, x1 = 0.7285 | 7.954 | – | 4.832 | – | 2.834
101 kPa, x1 = 0.8635 | 5.014 | – | 3.811 | – | 2.486

O=S(=O)([O-])[O-].[NH4+].[NH4+] + O
viscosity [mPa·s], 101 kPa
Conditions | 298.15 K | 308.15 K | 318.15 K
x1 = 0.008901 | 0.9796 | 0.8523 | 0.7339
x1 = 0.01765 | 1.709 | 1.427 | 1.231

OCCCO + O
Conditions | viscosity [mPa·s]
293.15 K, 101.33 kPa, x1 = 0.1597 | 5.035
298.15 K, 101 kPa, x1 = 0.0743 | 1.975
298.15 K, 101 kPa, x1 = 0.1661 | 4.203
298.15 K, 101 kPa, x1 = 0.2338 | 6.223
298.15 K, 101 kPa, x1 = 0.3007 | 8.667
298.15 K, 101 kPa, x1 = 0.3965 | 12.43
298.15 K, 101 kPa, x1 = 0.4726 | 15.67
298.15 K, 101 kPa, x1 = 0.5649 | 19.7
298.15 K, 101 kPa, x1 = 0.6713 | 24.72
298.15 K, 101 kPa, x1 = 0.7492 | 28.53
298.15 K, 101 kPa, x1 = 0.8137 | 32
298.15 K, 101 kPa, x1 = 0.9572 | 39.94
298.15 K, 101.3 kPa, x2 = 0.0622 | 37.15
308.15 K, 101 kPa, x1 = 0.095 | 1.65
308.15 K, 101 kPa, x1 = 0.1968 | 4.202
308.15 K, 101 kPa, x1 = 0.3019 | 6.937
308.15 K, 101 kPa, x1 = 0.4108 | 9.362
308.15 K, 101 kPa, x1 = 0.495 | 11.66
308.15 K, 101 kPa, x1 = 0.6009 | 14.63
308.15 K, 101 kPa, x1 = 0.692 | 17.5
308.15 K, 101 kPa, x1 = 0.7938 | 20.41
308.15 K, 101 kPa, x1 = 0.9232 | 24.43
313.15 K, 101.33 kPa, x1 = 0.5449 | 11.05
323.15 K, 101.33 kPa, x1 = 0.7523 | 11.15

[I-].[Rb+] + O
310.15 K, 101 kPa
Conditions | viscosity [mPa·s]
x1 = 0.000182 | 0.6811
x1 = 0.000907 | 0.69
x1 = 0.001816 | 0.7025
x1 = 0.002695 | 0.7138
x1 = 0.003679 | 0.7268
x1 = 0.005197 | 0.7469
x1 = 0.005988 | 0.7573

CCOC(=O)CCC(=O)OCC + O=C1CCCO1
Conditions | viscosity [mPa·s]
298.15 K, 101 kPa, x2 = 0.95 | 1.745

NC=O + OCC(O)CO
viscosity [mPa·s], 101 kPa
Conditions | x2 = 0.057 | x2 = 0.12 | x2 = 0.189 | x2 = 0.266 | x2 = 0.352 | x2 = 0.449 | x2 = 0.559 | x2 = 0.685 | x2 = 0.83
303.15 K | 4.08 | 5.13 | 7.21 | 11.1 | 15.9 | 27.5 | 53.1 | 106.8 | 214.3
318.15 K | 2.98 | 3.52 | 4.65 | 6.53 | 8.88 | 14.1 | 23.9 | 42.7 | 80.6

NC=O + OCCCO
viscosity [mPa·s], 100 kPa
Conditions | x1 = 0.1034 | x1 = 0.2038 | x1 = 0.3016 | x1 = 0.4021 | x1 = 0.5014 | x1 = 0.5969 | x1 = 0.7026 | x1 = 0.7996 | x1 = 0.8975
293.15 K | 38.53 | 28.29 | 19.85 | 14.09 | 10.47 | 8.232 | 6.233 | 5.198 | 4.415
298.15 K | 29.44 | 21.08 | 14.33 | 9.719 | 7.266 | 6.123 | 5.094 | 4.135 | 3.811
303.15 K | 23.41 | 16.76 | 11.34 | 7.417 | 5.776 | 4.679 | 4.163 | 3.336 | 3.213
